# Source: patent US9040565B2, “1H-benzimidazole-5-carboxamides as anti-inflammatory agents” (Orexo AB, priority 2008, dated 2015)
# Biological target: T1, recombinant human mPGES-1 (Homo sapiens, UniProt O14684)
# T1 construct: made in house; host or cells: Rosetta E. coli (microsomal/membrane fraction)
# T1 sequence (O14684 1-152): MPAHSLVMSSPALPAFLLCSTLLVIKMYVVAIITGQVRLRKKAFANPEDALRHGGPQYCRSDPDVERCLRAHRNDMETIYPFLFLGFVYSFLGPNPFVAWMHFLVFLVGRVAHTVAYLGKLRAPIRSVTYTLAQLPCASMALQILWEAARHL
# Test: mPGES-1 inhibition, HTRF detection of PGE2 (Biological Test)
# Type: biochemical
# Description: Microsomes from Rosetta E. coli bacteria expressing recombinant human mPGES-1 is dissolved in 0.1 M KPi pH 7.4 buffer containing 2.5 mM GSH. 50 μl of the enzyme is subsequently dispensed in a 384-well plate. 0.5 μl of the inhibitor dissolved in DMSO at is thereafter added to each well and incubated for 25 minutes at room temperature.
# Subsequently, 2 μl of PGH2 dissolved in an appropriate solvent is added to each well and after one minute the acidified stop solution containing FeCl2 is added. 4 μl of the total volume is transferred to a separate plate and diluted 750-fold in two separate steps before HTRF detection of PGE2.
# The HTRf detection is performed by the use of a commercially available kit from CisBio essentially according to the manufacturer's protocol. Briefly, 10 μl of the diluted sample is transferred to a white 384-well plate. 5 μl of d2 and 5 μl Eu3+-Cryptate labeled anti-PGE2 is added to each well containing samples by the use of a Multidrop. The plate is covered with a plastic self-adhesive film, centrifuged at 1200 rpm for 1 minute and subsequently stored at +4° C. over night.
# After over night incubation the fluorescence is measured by the use of an appropriate microplate reader. The fluorescence of europium cryptate, and d2 are measured using the following excitation and emission wavelength, europium cryptate: λmax^ex=307 nm, λmax^em=620 nm and d2: λmax^ex=620 nm, λmax^em=665 nm), respectively. The extent of the specific FRET is measured as a ratio of the emission intensity at 665 nm vs. that at 620 nm. A standard curve using synthetic PGE2 is used to quantify the amount of PGE2 in unknown samples.
row,inhibition at 10 µM,Compound
1,100%,"CCOc1cc2c(cc1C(=O)NC1CCC(C)(C)CC1)nc(Nc1c(Cl)cncc1Cl)n2C [Example 670, 2-(3,5-Dichloropyridin-4-ylamino)-N-(4,4-dimethyl-cyclohexyl)-6-ethoxy-1-methyl-1H-benzimidazole-5-carboxamide]"
2,100%,"COCCOc1cc2c(cc1C(=O)NC1CCC(C)(C)CC1)nc(Nc1c(Cl)cncc1Cl)n2C [Example 671, 2-(3,5-Dichloropyridin-4-ylamino)-N-(4,4-dimethyl-cyclohexyl)-6-(2-methoxy-ethoxy)-1-methyl-1H-benzimidazole-5-carboxamide]"
3,100%,"CN(C)c1cc2c(cc1C(=O)NC1CCC(C)(C)CC1)nc(Nc1c(Cl)cncc1Cl)n2C [Example 672, 2-(3,5-Dichloropyridin-4-ylamino)-N-(4,4-dimethyl-cyclohexyl)-6-dimethylamino-1-methyl-1H-benzimidazole-5-carboxamide]"
4,100%,"CC1(C)CCC(NC(=O)c2cc3nc(Nc4c(Cl)cncc4Cl)[nH]c3cc2F)CC1 [Example 673, 2-(3,5-Dichloro-pyridin-4-yl-amino)-6-fluoro-N-(4,4-dimethyl-cyclohex-1-yl)-1H-benzimidazole-5-carboxamide]"
5,100%,"Cn1c(Nc2c(Cl)cncc2Cl)nc2cc(C(=O)NC3CCC(C)(C)CC3)c(F)cc21 [Example 674, 2-(3,5-Dichloropyridin-4-ylamino)-N-(4,4-dimethyl-cyclohex-1-yl)-6-fluoro-1-methyl-1H-benzimidazole-5-carboxamide]"
6,100%,"O=C(N[C@H]1CC[C@H](C(F)(F)F)CC1)c1cc2nc(Nc3c(Cl)cncc3Cl)[nH]c2cc1OCC(F)(F)F [Example 675, 2-(3,5-Dichloro-pyridin-4-yl-amino)-6-(2,2,2-trifluoro-ethoxy)-N-(trans-4-trifluoromethyl-cyclohex-1-yl)-1H-benzimidazole-5-carboxamide]"
7,100%,"O=C(Nc1ccc(Br)cc1)c1cc2nc(Nc3c(Cl)cncc3Cl)[nH]c2cc1OCC(F)(F)F [Example 676, 2-(3,5-Dichloropyridin-4-ylamino)-N-(4-bromophenyl)-6-(2,2,2-trifluoroethoxy)-1H-benzimidazole-5-carboxamide]"
8,100%,"O=C(N[C@H]1CC[C@H](C(F)(F)F)CC1)c1cc2nc(Nc3c(Cl)cncc3Cl)[nH]c2cc1OCCF [Example 677, 2-(3,5-Dichloropyridin-4-ylamino)-N-(trans-4-trifluoromethyl-cyclohex-1-yl)-6-(2-fluoroethoxy)-1H-benzimidazole-5-carboxamide]"
9,100%,"O=C(Nc1ccc(Br)cc1)c1cc2nc(Nc3c(Cl)cncc3Cl)[nH]c2cc1OCCF [Example 678, 2-(3,5-Dichloropyridin-4-ylamino)-N-(4-bromophenyl)-6-(2-fluoroethoxy)-1H-benzimidazole-5-carboxamide]"
10,100%,"COc1cc2c(cc1C(=O)Nc1ccc(Br)cc1)nc(Nc1c(Cl)cncc1Cl)n2C [Example 679, 2-(3,5-Dichloro-pyridin-4-ylamino)-6-methoxy-N-(4-bromophenyl)-1-methyl-1H-benzimidazole-5-carboxamide]"
11,100%,"COc1cc2[nH]c(Nc3c(Cl)cncc3Cl)nc2cc1C(=O)Nc1cc(C(F)(F)F)ccn1 [Example 680, 2-(3,5-Dichloropyridin-4-ylamino)-N-(4-trifluoromethyl-pyridin-2-yl)-6-methoxy-1H-benzimidazole-5-carboxamide]"
12,100%,"COc1cc2[nH]c(Nc3c(Cl)cncc3Cl)nc2cc1C(=O)Nc1cc(C(F)(F)F)cc(C)n1 [Example 681, 2-(3,5-Dichloro-pyridin-4-ylamino)-6-methoxy-N-(6-methyl-4-trifluoromethyl-pyridin-2-yl)-1H-benzimidazole-5-carboxamide]"
13,99%,"COc1cc2[nH]c(Nc3c(Cl)cncc3Cl)nc2cc1C(=O)Nc1ccc(Br)cn1 [Example 682, 2-(3,5-Dichloro-pyridin-4-ylamino)-N-(5-bromo-pyridin-2-yl)-6-methoxy-1H-benzimidazole-5-carboxamide]"
14,98%,"COc1cc2[nH]c(Nc3c(Cl)cncc3Cl)nc2cc1C(=O)Nc1ccc(C2CC2)cn1 [Example 684, 2-(3,5-Dichloro-pyridin-4-ylamino)-N-(5-cyclopropyl-pyridin-2-yl)-6-methoxy-1H-benzimidazole-5-carboxamide]"
15,98%,"COCCOc1cc2[nH]c(Nc3c(Cl)cncc3Cl)nc2cc1C(=O)Nc1ccc(Br)cc1 [Example 685, 2-(3,5-Dichloro-pyridin-4-ylamino)-6-(2-methoxy-ethoxy)-N-(4-bromo-phenyl)-1H-benzimidazole-5-carboxamide]"
16,99%,"COCCOc1cc2[nH]c(Nc3c(Cl)cncc3Cl)nc2cc1C(=O)NCc1ncccc1C(F)(F)F [Example 686, 2-(3,5-Dichloro-pyridin-4-ylamino)-N-((3-trifluoromethyl-pyridin-2-yl)-methyl)-6-(2-methoxy-ethoxy)-1H-benzimidazole-5-carboxamide]"
17,96%,"CN(C)CCOc1cc2[nH]c(Nc3c(Cl)cncc3Cl)nc2cc1C(=O)Nc1ccc(Br)cc1 [Example 687, 2-(3,5-Dichloro-pyridin-4-ylamino)-6-(2-dimethylamino-ethoxy)-N-(4-bromo-phenyl)-1H-benzimidazole-5-carboxamide]"
18,100%,"COc1cc2[nH]c(Nc3c(Cl)cncc3Cl)nc2cc1C(=O)NCc1ncccc1C1CCC1 [Example 688, 2-(3,5-Dichloro-pyridin-4-ylamino)-N-((3-cyclobutyl-pyridin-2-yl)-methyl)-6-methoxy-1H-benzimidazole-5-carboxamide]"
19,100%,"CCOc1cc2[nH]c(Nc3c(Cl)cncc3Cl)nc2cc1C(=O)NCc1ccccc1C(F)(F)F [Example 689, 2-(3,5-Dichloropyridin-4-ylamino)-N-((2-trifluoromethyl-phen-1-yl)-methyl)-6-ethoxy-1H-benzimidazole-5-carboxamide]"
20,100%,"CCOc1cc2[nH]c(Nc3c(Cl)cncc3Cl)nc2cc1C(=O)N[C@H]1CC[C@H](C(F)(F)F)CC1 [Example 690, 2-(3,5-Dichloropyridin-4-ylamino)-N-(trans-4-trifluoromethyl-cyclohex-1-yl)-6-ethoxy-1H-benzimidazole-5-carboxamide]"
21,95%,"COc1cc2[nH]c(Nc3c(Cl)cncc3Cl)nc2cc1C(=O)Nc1cc(C(F)(F)F)cc(N(C)C)n1 [Example 692, 2-(3,5-Dichloropyridin-4-ylamino)-N-(6-dimethylamino-4-trifluoromethyl-pyridin-2-yl)-6-methoxy-1H-benzimidazole-5-carboxamide]"
22,97%,"CCOc1cc2[nH]c(Nc3c(Cl)cncc3Cl)nc2cc1C(=O)NCc1ncccc1Cl [Example 693, 2-(3,5-Dichloropyridin-4-ylamino)-N-((3-chloro-pyridin-2-yl)-methyl)-6-ethoxy-1H-benzimidazole-5-carboxamide]"
23,98%,"CCOc1cc2[nH]c(Nc3c(Cl)cncc3Cl)nc2cc1C(=O)Nc1cc(C(F)(F)F)ccn1 [Example 694, 2-(3,5-Dichloropyridin-4-ylamino)-N-(4-trifluoromethyl-pyridin-2-yl)-6-ethoxy-1H-benzimidazole-6-carboxamide]"
24,94%,"CCOc1cc2[nH]c(Nc3c(Cl)cncc3Cl)nc2cc1C(=O)Nc1ccc(Br)cc1 [Example 695, 2-(3,5-Dichloropyridin-4-ylamino)-N-(4-bromo-phenyl)-6-ethoxy-1H-benzimidazole-6-carboxamide]"
25,100%,"COc1cc2[nH]c(Nc3c(Cl)cncc3Cl)nc2cc1C(=O)Nc1cccc(N(C)C)n1 [Example 696, 2-(3,5-Dichloropyridin-4-ylamino)-N-(6-dimethylamino-pyridin-2-yl)-6-methoxy-1H-benzimidazole-5-carboxamide]"
26,100%,CCOc1cc2[nH]c(Nc3c(Cl)cncc3Cl)nc2cc1C(=O)Nc1cc(C(F)(F)F)cc(N(C)C)n1 [Example 697]
27,99%,CCOc1cc2[nH]c(Nc3c(Cl)cncc3Cl)nc2cc1C(=O)Nc1cccc(C(F)F)n1 [Example 698]
28,100%,O=C(Nc1cc(C(F)F)c(F)cn1)c1cc2nc(Nc3c(Cl)cncc3Cl)[nH]c2cc1OCC(F)(F)F [Example 699]

row,Compound,inhibition at 10 µM
1,"CCOc1cc2[nH]c(Nc3c(Cl)cncc3Cl)nc2cc1C(=O)NCC(F)(F)C(F)(F)C(F)(F)C(F)(F)F [Example 691, 2-(3,5-Dichloropyridin-4-ylamino)-N-(2,2,3,3,4,4,5,5,5-nonafluoropentyl)-6-ethoxy-1H-benzimidazole-5-carboxamide]",97%
